Data as given in publication PMC11845477, “Exploring the principles behind antibiotics with limited resistance” (Nature Communications, 2025).
Where a SMILES comes first, the peptide text is derived from it. Bridges are numbered along the chain shown (N, C = ends). [ ]: non-standard residue; d: D form. The star is where a group is joined. X1 = NC[C@@H](CC(=O)*)c1cccc(Cl)c1; Dab = NCC[C@H](N)C(=O)O; Dap = NC[C@H](N)C(=O)O

Experiments:
[1] = test system: E. coli ATCC 25922 (SEN) and E. coli NCTC13846 (MDR); assay: Adaptive laboratory evolution (ALE), relative MIC of evolved lines; format: cell-based, Escherichia coli
Outline: (§1)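 Ten parallel populations per antibiotic–ancestor pair were evolved in MHB at 37 °C, starting near 50% growth-inhibiting drug. Every 72 h they were passaged into 0.5–2.5× increasing concentrations, keeping the highest-drug well with OD600 > 0.2.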

[2] = test system: A. baumannii ATCC 17978 (SEN) and A. baumannii ATCC BAA-1605 (MDR); assay: as above; format: cell-based, Acinetobacter baumannii; settings: AB-MDR (ATCC BAA 1605), evolved vs ancestor
Outline: as §1

Structure (SMILES): CC(C)C[C@@H]1NC(=O)[C@@H](Cc2ccccc2)NC(=O)[C@H](CCN)NC(=O)[C@@H](NC(=O)[C@H](CN)NC(=O)[C@@H](NC(=O)C[C@H](CN)c2cccc(Cl)c2)[C@@H](C)O)CCNC(=O)[C@H]([C@@H](C)O)NC(=O)[C@H](CCN)NC(=O)[C@H](CCN)NC1=O [SPR206] (X1-T[Dap][Dab][Dab][dF]L[Dab][Dab]T; lactam 3-C (inferred); N-terminus assumed)
- Relative MIC ([1]; ALE, E. coli ATCC 25922 (EC-SEN), evolved line 1): 512
- Relative MIC ([1]; ALE, E. coli ATCC 25922 (EC-SEN), evolved line 2): 256
- Relative MIC ([1]; ALE, E. coli ATCC 25922 (EC-SEN), evolved line 3): 512
- Relative MIC ([1]; ALE, E. coli ATCC 25922 (EC-SEN), evolved line 4): 256
- Relative MIC ([1]; ALE, E. coli ATCC 25922 (EC-SEN), evolved line 5): 128
- Relative MIC ([1]; ALE, E. coli ATCC 25922 (EC-SEN), evolved line 6): 512
- Relative MIC ([1]; ALE, E. coli ATCC 25922 (EC-SEN), evolved line 7): 256
- Relative MIC ([1]; ALE, E. coli ATCC 25922 (EC-SEN), evolved line 8): 128
- Relative MIC ([1]; ALE, E. coli ATCC 25922 (EC-SEN), evolved line 9): 256
- Relative MIC ([1]; ALE, E. coli ATCC 25922 (EC-SEN), evolved line 10): 16
- Relative MIC ([1]; ALE, E. coli NCTC 13846 (EC-MDR), evolved line 1): 8
- Relative MIC ([1]; ALE, E. coli NCTC 13846 (EC-MDR), evolved line 2): 16
- Relative MIC ([1]; ALE, E. coli NCTC 13846 (EC-MDR), evolved line 3): 16
- Relative MIC ([1]; ALE, E. coli NCTC 13846 (EC-MDR), evolved line 4): 16
- Relative MIC ([1]; ALE, E. coli NCTC 13846 (EC-MDR), evolved line 5): 32
- Relative MIC ([1]; ALE, E. coli NCTC 13846 (EC-MDR), evolved line 6): 8
- Relative MIC ([1]; ALE, E. coli NCTC 13846 (EC-MDR), evolved line 7): 8
- Relative MIC ([1]; ALE, E. coli NCTC 13846 (EC-MDR), evolved line 8): 16
- Relative MIC ([1]; ALE, E. coli NCTC 13846 (EC-MDR), evolved line 9): 16
- Relative MIC ([1]; ALE, E. coli NCTC 13846 (EC-MDR), evolved line 10): 32
- Relative MIC (log10) ([1]; EC-MDR (Escherichia coli NCTC 13846), evolved line 2): 1.204 log10
- Relative MIC (log10) ([1]; EC-MDR (Escherichia coli NCTC 13846), evolved line 4): 1.204 log10
- Relative MIC (log10) ([1]; EC-MDR (Escherichia coli NCTC 13846), evolved line 8): 1.204 log10
- Relative MIC (log10) ([1]; EC-MDR (Escherichia coli NCTC 13846), evolved line 9): 1.204 log10
- Relative MIC (log10) ([1]; EC-MDR (Escherichia coli NCTC 13846), evolved line 10): 1.505 log10
- MIC of evolved line ([1]; EC-MDR (NCTC 13846), evolved line 1): 32 µg/mL
- Relative MIC ([1]; EC-MDR (NCTC 13846), evolved line 1, evolved vs ancestor): 8
- MIC of evolved line ([1]; EC-MDR (NCTC 13846), evolved line 2): 64 µg/mL
- Relative MIC ([1]; EC-MDR (NCTC 13846), evolved line 2, evolved vs ancestor): 16
- Relative MIC ([1]; EC-MDR (NCTC 13846), evolved line 3, evolved vs ancestor): 16
- MIC of evolved line ([1]; EC-MDR (NCTC 13846), evolved line 4): 64 µg/mL
- Relative MIC ([1]; EC-MDR (NCTC 13846), evolved line 4, evolved vs ancestor): 16
- Relative MIC ([1]; EC-MDR (NCTC 13846), evolved line 5, evolved vs ancestor): 32
- Relative MIC ([1]; EC-MDR (NCTC 13846), evolved line 6, evolved vs ancestor): 8
- MIC of evolved line ([1]; EC-MDR (NCTC 13846), evolved line 7): 32 µg/mL
- Relative MIC ([1]; EC-MDR (NCTC 13846), evolved line 7, evolved vs ancestor): 8
- Relative MIC ([1]; EC-MDR (NCTC 13846), evolved line 8, evolved vs ancestor): 16
- Relative MIC ([1]; EC-MDR (NCTC 13846), evolved line 9, evolved vs ancestor): 16
- Relative MIC ([1]; EC-MDR (NCTC 13846), evolved line 10, evolved vs ancestor): 32
- MIC of evolved line ([1]; EC-MDR NCTC 13846, evolved line 3): 64 µg/mL
- MIC of evolved line ([1]; EC-MDR NCTC 13846, evolved line 5): 128 µg/mL
- MIC of evolved line ([1]; EC-MDR NCTC 13846, evolved line 6): 32 µg/mL
- MIC of evolved line ([1]; EC-MDR NCTC 13846, evolved line 8): 64 µg/mL
- MIC of evolved line ([1]; EC-MDR NCTC 13846, evolved line 9): 64 µg/mL
- MIC of evolved line ([1]; EC-MDR NCTC 13846, evolved line 10): 128 µg/mL
- MIC of evolved line ([1]; EC-SEN (ATCC 25922), evolved line 1): 128 µg/mL
- Relative MIC ([1]; EC-SEN (ATCC 25922), evolved line 1, evolved vs ancestor): 512
- MIC of evolved line ([1]; EC-SEN (ATCC 25922), evolved line 2): 64 µg/mL
- Relative MIC ([1]; EC-SEN (ATCC 25922), evolved line 2, evolved vs ancestor): 256
- MIC of evolved line ([1]; EC-SEN (ATCC 25922), evolved line 3): 128 µg/mL
- Relative MIC ([1]; EC-SEN (ATCC 25922), evolved line 3, evolved vs ancestor): 512
- MIC of evolved line ([1]; EC-SEN (ATCC 25922), evolved line 4): 64 µg/mL
- Relative MIC ([1]; EC-SEN (ATCC 25922), evolved line 4, evolved vs ancestor): 256
- MIC of evolved line ([1]; EC-SEN (ATCC 25922), evolved line 5): 32 µg/mL
- Relative MIC ([1]; EC-SEN (ATCC 25922), evolved line 5, evolved vs ancestor): 128
- MIC of evolved line ([1]; EC-SEN (ATCC 25922), evolved line 6): 128 µg/mL
- Relative MIC ([1]; EC-SEN (ATCC 25922), evolved line 6, evolved vs ancestor): 512
- MIC of evolved line ([1]; EC-SEN (ATCC 25922), evolved line 7): 64 µg/mL
- Relative MIC ([1]; EC-SEN (ATCC 25922), evolved line 7, evolved vs ancestor): 256
- MIC of evolved line ([1]; EC-SEN (ATCC 25922), evolved line 8): 32 µg/mL
- Relative MIC ([1]; EC-SEN (ATCC 25922), evolved line 8, evolved vs ancestor): 128
- MIC of evolved line ([1]; EC-SEN (ATCC 25922), evolved line 9): 64 µg/mL
- Relative MIC ([1]; EC-SEN (ATCC 25922), evolved line 9, evolved vs ancestor): 256
- MIC of evolved line ([1]; EC-SEN (ATCC 25922), evolved line 10): 4 µg/mL
- Relative MIC ([1]; EC-SEN (ATCC 25922), evolved line 10, evolved vs ancestor): 16
- Relative MIC (log10) ([1]; EC-SEN (Escherichia coli ATCC 25922), evolved line 3): 2.709 log10
- Relative MIC (log10) ([1]; EC-SEN (Escherichia coli ATCC 25922), evolved line 4): 2.408 log10
- Relative MIC (log10) ([1]; EC-SEN (Escherichia coli ATCC 25922), evolved line 6): 2.709 log10
- Relative MIC (log10) ([1]; EC-SEN (Escherichia coli ATCC 25922), evolved line 9): 2.408 log10
- Relative MIC (log10) ([1]; EC-SEN, Escherichia coli ATCC 25922, evolved line 1): 2.709 log10
- Relative MIC ([1]; Escherichia coli ATCC 25922 (EC-SEN), evolved line 1): 512
- Relative MIC ([1]; Escherichia coli ATCC 25922 (EC-SEN), evolved line 2): 256
- Relative MIC ([1]; Escherichia coli ATCC 25922 (EC-SEN), evolved line 3): 512
- Relative MIC ([1]; Escherichia coli ATCC 25922 (EC-SEN), evolved line 4): 256
- Relative MIC ([1]; Escherichia coli ATCC 25922 (EC-SEN), evolved line 5): 128
- Relative MIC ([1]; Escherichia coli ATCC 25922 (EC-SEN), evolved line 6): 512
- Relative MIC ([1]; Escherichia coli ATCC 25922 (EC-SEN), evolved line 7): 256
- Relative MIC ([1]; Escherichia coli ATCC 25922 (EC-SEN), evolved line 8): 128
- Relative MIC ([1]; Escherichia coli ATCC 25922 (EC-SEN), evolved line 9): 256
- Relative MIC ([1]; Escherichia coli ATCC 25922 (EC-SEN), evolved line 10): 16
- Relative MIC ([1]; Escherichia coli NCTC 13846 (EC-MDR), evolved line 1): 8
- Relative MIC ([1]; Escherichia coli NCTC 13846 (EC-MDR), evolved line 2): 16
- Relative MIC ([1]; Escherichia coli NCTC 13846 (EC-MDR), evolved line 3): 16
- Relative MIC ([1]; Escherichia coli NCTC 13846 (EC-MDR), evolved line 4): 16
- Relative MIC ([1]; Escherichia coli NCTC 13846 (EC-MDR), evolved line 5): 32
- Relative MIC ([1]; Escherichia coli NCTC 13846 (EC-MDR), evolved line 6): 8
- Relative MIC ([1]; Escherichia coli NCTC 13846 (EC-MDR), evolved line 7): 8
- Relative MIC ([1]; Escherichia coli NCTC 13846 (EC-MDR), evolved line 8): 16
- Relative MIC ([1]; Escherichia coli NCTC 13846 (EC-MDR), evolved line 9): 16
- Relative MIC ([1]; Escherichia coli NCTC 13846 (EC-MDR), evolved line 10): 32
- Relative MIC ([2]; evolved line 1): 2048
- Relative MIC ([2]; evolved line 2): 8192
- Relative MIC ([2]; evolved line 3): 512
- Relative MIC ([2]; evolved line 4): 2048
- Relative MIC ([2]; evolved line 5): 8192
- Relative MIC ([2]; evolved line 6): 8192
